Laboratory results reported in patent US20150018301A1, “LRRK-2-Mediated Neuronal Toxicity” (THE JOHNS HOPKINS UNIVERSITY, priority 2009, published 2015).

Experiments:
[1] = target: T1, LRRK2 WT (Homo sapiens, UniProt Q5S007); assay: In vitro kinase assay: LRRK2 autophosphorylation; type: biochemical; conditions: for IC50: Table 2, mean of three experiments; for LRRK2 autophosphorylation Average ± SEM: compound 16 μM, phosphorylation normalized to absence of compound, mean ± S.E.M. of three experiments; for effect on WT LRRK2 autophosphorylation: dose-response; for effect on LRRK2 autophosphorylation: screen at 16 μM
[2] = target: T1, LRRK2 WT; assay: In vitro kinase assay: LRRK2-mediated MBP phosphorylation; type: biochemical; conditions: for IC50: mean of three experiments; for MBP phosphorylation Average ± SEM: compound 16 μM, 30° C., 15 min, normalized to absence of compound, mean ± S.E.M. of three experiments; for effect on WT LRRK2 MBP phosphorylation: dose-response; for effect on LRRK2-mediated phosphorylation of MBP: screen at 16 μM
[3] = target: LRRK1 WT (Homo sapiens, UniProt Q38SD2); assay: In vitro kinase assay: LRRK1-mediated MBP phosphorylation; type: biochemical; conditions: for IC50: Table 3, mean of three experiments
[4] = target: G2019S LRRK2 (Homo sapiens, UniProt Q5S007, G2019S); assay: In vitro kinase assay: LRRK2-mediated phosphorylation of 4E-BP1; type: biochemical
Procedure: The GST-4E-BP1 expressing vector was generated using the Invitrogen Gateway LR Clonase System. Briefly, an entry clone containing the 4E-BP1 sequence was reacted with the destination vector, pDEST-15 in the presence of the LR clonase mixture. After the clonase reaction, the mixture was transformed into One Shot BL21 chemically competent E. coli. The transformed cells were grown on ampicillin containing LB agar plate for one day at 37° C. Colonies containing GST-4E-BP1 were isolated. For protein induction, 100 μM IPTG was added to 100 mL culture and incubated for 3 h at 30° C. After IPTG incubation, cells were collected by centrifugation at 3,000×g for 15 min. The pellet was lysed with sonication in the presence of lysis butter containing 0.5% TX-100, 50 mM Tris-HCl (pH 8.0), 100 mM NaCl, 0.5 mM EGTA, 5 mM MgCl2, 2 mM DTT, and complete protease inhibitors. The lysate was centrifugated at 15,000×g for 15 min and the supernatant was incubated with GSH-sepharose beads for 2 h at 4° C. After incubation, the beads were washed with PBS containing an additional 150 mM NaCl and 0.1% TX-100 three times. The protein was eluted with elution buffer containing Hepes (pH 8.0), 150 mM NaCl, 30% glycerol, and 30 mM glutathione. The eluted proteins were stored at −80° C.
The in vitro kinase assay was performed as previously described. West, A. B. et al. Parkinson's disease-associated mutations in leucine-rich repeat kinase 2 augment kinase activity. Proc Natl Acad Sci USA 102, 16842-16847 (2005). Recombinant LRRK2 and MBP or CST-4E-BP1 were combined before the kinase reaction. LRRK2 autophosphorylation is LRRK2 itself phosphorylation and MBP or GST-4E-BP1 phosphorylation is induced by LRRK2. After the kinase reaction, combined LRRK2 and MBP or GST-4E-BP1 were loaded on SDSPAGE and phosphorylated LRRK2 and MBP or GST-4E-BP1 could be detected separately an a single gel. Recombinant proteins and inhibitors were incubated at 30° C. in kinase assay buffer containing 20 mM Hepes (pH 7.4), 5 mM EGTA, and 20 mM β-glycerol phosphate. 0.5 μg MBP (Upstate) or 0.5 μg GST-4B-BP1, 50 μM ATP (Sigma), 20 mM MgCl2, and 1 μCi [γ-32P] ATP (PerkinElmer) was added after 5 min. The reaction was performed at 30° C. to reduce non-specific 32P incorporation for 15 min and terminated by the addition of 5×Laemmili sample buffer. The reactions were then heated at 70° C. for 10 min and resolved by 12% SDS-PAGE. Gels were stained by coomassie brilliant blue after fixation with 10% acetic acid and 40% methanol and then exposed to a Phosphoimager. Data were analyzed by ImageQuant 6.0 software.

[5] = tested on: rat primary cortical neuronal cultures transfected with G2019S LRRK2; assay: LRRK2-induced neuronal toxicity in primary cortical neuronal cultures (neurite shortening, TUNEL); type: cell-based; conditions: 0.5 μM
Procedure: Representative photomicrographs of each experimental group. LRRK2 and eGFP constructs were combined in a molar ratio of 10:1, respectively, and transfected by using of Lipofectamine 2000 (Invitrogen) at DIV (day in vitro) 14 into rat primary cortical neuronal cultures. Compounds (0.5 μM) were administrated at the time of transfection and continued until toxicity assessments. On DIV 16, images were collected on a Zeiss Automatic stage with Axiovision 6.0. (a) Low magnified photomicrographs; (b and c) High magnified photomicrographs. Scale bar=50 μm (a) and 10 μm (b and c);
Primary cortical neuronal cultures were prepared from gestational day 15 fetal rats as previously described. Gonzalez-Zulueta, M., et al. Manganese superoxide dismutase protects nNOS neurons from NMDA and nitric oxide-mediated neurotoxicity. J Neurosci 18, 2040-2055 (1998). All procedures used in this study were approved by the Johns Hopkins Medical Institute Animal Care Committee. Cell viability assays and DNA fragmentation (TUNEL assay) were performed as previously described. Smith, W. W., et al. Kinase activity of mutant LRRK2 mediates neuronal toxicity. Nat Neurosci 9, 1231-1233 (2006); West, A. B., et al. Parkinson's disease-associated mutations in LRRK2 link enhanced GTP-binding and kinase activities to neuronal toxicity. Hum Mol Genet 16, 223-232 (2007). The cortex was dissected, incubated for 15 min in 0.027% trypsin, and then transferred to modified Eagle's medium (MEM)/10% horse serum/10% fetal bovine serum/2 mM glutamine followed by trituration. Dissociated cells were plated at a density of 3-4×10^5 cells per well in polyornithine-coated plates. After 4 days the cells were treated with 10 μg of 5-fluoro-2′-deoxyuridine to prevent proliferation of nonneuronal cells. Cells were maintained in MEM/5% horse serum/2 mM glutamine in 8% CO2 incubator. The medium was changed twice weekly. For assessment of LRRK2-mediated neuronal injury, LRRK2 and eGFP constructs were combined in a molar ratio of 10:1, respectively, and transfected into neurons with Lipofectamine 2000 (Invitrogen) at DIV (day in vitro) 14. On DIV 16, images were collected on a Zeiss Automatic stage with Axiovision 6.0. Viable neurons were defined as having at least one smooth extension (neurite) with twice the length of the cell body. The percentage of eGFP-positive injured neurons in each experimental group relative to those neurons transfected with eGFP was calculated.

T1 sequence (Q5S007 whole entry): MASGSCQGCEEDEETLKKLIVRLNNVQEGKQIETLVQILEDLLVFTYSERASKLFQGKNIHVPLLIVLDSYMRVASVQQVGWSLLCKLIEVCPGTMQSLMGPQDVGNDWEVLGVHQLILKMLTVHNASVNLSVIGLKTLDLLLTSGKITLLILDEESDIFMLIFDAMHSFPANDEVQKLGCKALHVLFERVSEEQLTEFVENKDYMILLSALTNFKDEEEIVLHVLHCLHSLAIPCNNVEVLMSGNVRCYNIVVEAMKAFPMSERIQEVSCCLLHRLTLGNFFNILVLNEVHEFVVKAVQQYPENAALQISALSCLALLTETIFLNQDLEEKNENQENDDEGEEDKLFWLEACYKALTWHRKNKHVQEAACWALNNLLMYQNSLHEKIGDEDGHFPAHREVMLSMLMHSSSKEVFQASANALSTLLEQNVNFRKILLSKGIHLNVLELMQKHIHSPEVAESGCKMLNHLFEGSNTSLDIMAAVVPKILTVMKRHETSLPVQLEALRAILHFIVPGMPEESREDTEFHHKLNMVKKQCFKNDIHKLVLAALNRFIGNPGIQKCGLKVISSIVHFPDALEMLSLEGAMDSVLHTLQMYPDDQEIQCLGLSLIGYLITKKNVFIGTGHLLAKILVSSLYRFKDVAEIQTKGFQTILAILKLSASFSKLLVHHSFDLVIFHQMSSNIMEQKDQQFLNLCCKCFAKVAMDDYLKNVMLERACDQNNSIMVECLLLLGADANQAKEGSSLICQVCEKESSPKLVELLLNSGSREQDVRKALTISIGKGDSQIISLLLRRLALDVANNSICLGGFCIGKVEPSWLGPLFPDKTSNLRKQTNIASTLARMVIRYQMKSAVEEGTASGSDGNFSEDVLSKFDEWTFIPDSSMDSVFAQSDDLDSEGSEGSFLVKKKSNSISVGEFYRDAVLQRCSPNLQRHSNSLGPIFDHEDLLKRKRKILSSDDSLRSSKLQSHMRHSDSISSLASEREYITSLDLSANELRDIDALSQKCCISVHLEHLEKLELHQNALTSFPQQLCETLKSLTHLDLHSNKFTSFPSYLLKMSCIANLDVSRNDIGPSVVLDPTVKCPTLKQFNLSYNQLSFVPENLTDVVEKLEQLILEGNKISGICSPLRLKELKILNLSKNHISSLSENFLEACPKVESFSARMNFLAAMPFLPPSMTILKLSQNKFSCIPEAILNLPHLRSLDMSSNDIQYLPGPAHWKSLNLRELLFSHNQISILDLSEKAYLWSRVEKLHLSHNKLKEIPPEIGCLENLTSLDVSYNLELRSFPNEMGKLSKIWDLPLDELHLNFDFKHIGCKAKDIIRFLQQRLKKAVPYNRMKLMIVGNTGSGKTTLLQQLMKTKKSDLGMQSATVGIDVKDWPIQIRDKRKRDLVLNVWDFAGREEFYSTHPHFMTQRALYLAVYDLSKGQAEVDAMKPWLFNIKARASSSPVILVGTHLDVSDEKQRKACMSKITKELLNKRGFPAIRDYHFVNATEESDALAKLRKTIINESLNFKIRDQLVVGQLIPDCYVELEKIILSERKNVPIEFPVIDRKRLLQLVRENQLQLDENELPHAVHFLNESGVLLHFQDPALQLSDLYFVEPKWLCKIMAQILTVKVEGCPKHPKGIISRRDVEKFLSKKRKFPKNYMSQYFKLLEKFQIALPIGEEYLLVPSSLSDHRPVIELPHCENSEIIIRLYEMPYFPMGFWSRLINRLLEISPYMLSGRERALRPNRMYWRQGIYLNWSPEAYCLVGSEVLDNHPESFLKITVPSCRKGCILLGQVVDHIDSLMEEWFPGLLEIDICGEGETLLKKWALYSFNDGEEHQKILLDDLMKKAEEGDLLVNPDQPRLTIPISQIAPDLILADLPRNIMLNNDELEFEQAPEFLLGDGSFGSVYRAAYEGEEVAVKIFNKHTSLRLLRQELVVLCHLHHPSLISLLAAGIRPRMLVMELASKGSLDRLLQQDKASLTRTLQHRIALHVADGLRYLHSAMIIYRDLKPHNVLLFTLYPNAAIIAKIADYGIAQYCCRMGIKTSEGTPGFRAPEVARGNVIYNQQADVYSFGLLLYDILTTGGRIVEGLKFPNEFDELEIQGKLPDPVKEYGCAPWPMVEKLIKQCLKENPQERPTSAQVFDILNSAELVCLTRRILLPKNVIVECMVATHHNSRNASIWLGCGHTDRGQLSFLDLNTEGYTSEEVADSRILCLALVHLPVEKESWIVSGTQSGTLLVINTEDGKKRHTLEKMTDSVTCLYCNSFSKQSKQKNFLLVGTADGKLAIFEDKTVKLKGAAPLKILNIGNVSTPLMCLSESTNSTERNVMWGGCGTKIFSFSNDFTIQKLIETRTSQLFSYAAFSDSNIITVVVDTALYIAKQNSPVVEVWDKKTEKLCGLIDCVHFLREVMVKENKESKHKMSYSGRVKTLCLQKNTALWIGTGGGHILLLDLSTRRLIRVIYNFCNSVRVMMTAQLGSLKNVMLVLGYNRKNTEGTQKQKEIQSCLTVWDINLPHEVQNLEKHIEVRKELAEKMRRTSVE
Sequence of LRRK1 WT (Q38SD2 whole entry): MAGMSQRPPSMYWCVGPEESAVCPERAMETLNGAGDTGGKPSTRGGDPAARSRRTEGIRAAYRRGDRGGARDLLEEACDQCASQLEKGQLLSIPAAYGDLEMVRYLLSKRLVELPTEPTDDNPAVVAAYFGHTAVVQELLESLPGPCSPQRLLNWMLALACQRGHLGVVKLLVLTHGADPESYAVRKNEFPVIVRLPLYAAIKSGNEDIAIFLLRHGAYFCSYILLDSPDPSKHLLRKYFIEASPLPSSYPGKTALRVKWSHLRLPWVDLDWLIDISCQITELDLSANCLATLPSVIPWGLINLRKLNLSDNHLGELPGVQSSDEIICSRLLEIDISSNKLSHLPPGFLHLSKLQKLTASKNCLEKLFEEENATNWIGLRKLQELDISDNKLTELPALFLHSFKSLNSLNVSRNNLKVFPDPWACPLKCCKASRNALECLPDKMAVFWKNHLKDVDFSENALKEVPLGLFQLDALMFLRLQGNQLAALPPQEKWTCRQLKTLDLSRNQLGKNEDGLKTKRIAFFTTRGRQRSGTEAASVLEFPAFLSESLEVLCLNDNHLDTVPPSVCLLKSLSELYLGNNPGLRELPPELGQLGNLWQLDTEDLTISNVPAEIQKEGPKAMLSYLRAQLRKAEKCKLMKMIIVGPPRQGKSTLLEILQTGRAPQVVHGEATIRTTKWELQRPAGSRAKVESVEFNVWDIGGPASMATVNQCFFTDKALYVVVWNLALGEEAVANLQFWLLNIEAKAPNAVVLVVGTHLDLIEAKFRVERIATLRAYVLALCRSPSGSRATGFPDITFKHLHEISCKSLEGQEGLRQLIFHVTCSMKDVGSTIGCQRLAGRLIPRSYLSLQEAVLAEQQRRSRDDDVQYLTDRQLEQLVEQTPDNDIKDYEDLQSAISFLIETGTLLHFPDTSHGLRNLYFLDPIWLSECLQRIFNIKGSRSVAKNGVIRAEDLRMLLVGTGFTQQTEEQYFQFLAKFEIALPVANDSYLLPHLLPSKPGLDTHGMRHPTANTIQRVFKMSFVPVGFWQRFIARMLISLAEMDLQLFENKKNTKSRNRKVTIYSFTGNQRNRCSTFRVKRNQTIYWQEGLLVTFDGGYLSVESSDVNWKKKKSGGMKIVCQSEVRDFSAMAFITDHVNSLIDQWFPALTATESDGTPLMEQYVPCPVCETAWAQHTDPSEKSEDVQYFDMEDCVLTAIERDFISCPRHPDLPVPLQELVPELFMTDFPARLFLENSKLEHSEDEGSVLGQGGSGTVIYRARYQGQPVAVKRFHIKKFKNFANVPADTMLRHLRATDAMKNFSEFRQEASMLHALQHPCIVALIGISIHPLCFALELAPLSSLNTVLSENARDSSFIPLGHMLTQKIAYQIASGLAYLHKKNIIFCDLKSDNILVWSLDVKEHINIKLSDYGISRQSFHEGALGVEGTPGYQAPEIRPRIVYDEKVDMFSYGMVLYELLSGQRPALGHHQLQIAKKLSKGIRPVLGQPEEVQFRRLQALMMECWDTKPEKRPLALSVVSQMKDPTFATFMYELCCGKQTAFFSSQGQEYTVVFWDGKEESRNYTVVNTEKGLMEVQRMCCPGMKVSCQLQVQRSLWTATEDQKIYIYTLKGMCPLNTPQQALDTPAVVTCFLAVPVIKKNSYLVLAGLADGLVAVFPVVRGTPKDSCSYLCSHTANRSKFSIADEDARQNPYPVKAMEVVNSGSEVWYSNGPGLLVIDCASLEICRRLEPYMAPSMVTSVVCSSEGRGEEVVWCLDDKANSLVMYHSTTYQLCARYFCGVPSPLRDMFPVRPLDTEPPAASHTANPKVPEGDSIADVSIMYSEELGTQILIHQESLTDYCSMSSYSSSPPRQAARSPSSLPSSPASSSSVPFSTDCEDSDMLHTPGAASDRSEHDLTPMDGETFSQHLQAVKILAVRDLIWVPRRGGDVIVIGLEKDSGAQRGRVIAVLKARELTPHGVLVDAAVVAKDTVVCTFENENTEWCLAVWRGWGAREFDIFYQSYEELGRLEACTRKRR
Sequence of G2019S LRRK2 (Q5S007 whole entry G2019S): as the sequence (Q5S007 whole entry) above, with G2019S counted along it

SMILES | IC50 [1] | LRRK2 autophosphorylation Average ± SEM [1] | effect on WT LRRK2 autophosphorylation [1] | effect on LRRK2 autophosphorylation [1] | IC50 ([2]; Table 2) | IC50 ([2]; Table 3) | MBP phosphorylation Average ± SEM [2] | effect on WT LRRK2 MBP phosphorylation [2] | effect on LRRK2-mediated phosphorylation of MBP [2] | effect on LRRK1 MBP phosphorylation [3] | IC50 [3] | LRRK2-mediated phosphorylation of 4E-BP1 [4] | G2019S LRRK2 cell death (TUNEL) [5] | G2019S LRRK2 cell injury (neurite shortening) [5] | G2019S LRRK2 toxicity [5]
O=C1Nc2ccccc2/C1=C1/Nc2ccccc2/C1=N\O [Inhibitor 70, Indirubin-3-monooxine] | 1750 nM | 6.0 ± 6.5 % of control | inhibited | substantially inhibited | 4.83 µM | 4.83 µM | 33.1 ± 15.7 % of control | inhibited | substantially inhibited | inhibited | 3.1 µM | inhibited | attenuated | attenuated | –
Cc1ccc(NC(=O)c2cccc(N(C)C)c2)cc1NC(=O)c1ccc(O)cc1 [Inhibitor 53, ZM336372] | – | – | no effect | – | – | – | – | no effect | – | minimal to no effect | – | did not inhibit | – | – | failed to inhibit
O=C1Nc2ccc(I)cc2/C1=C/c1cc(Br)c(O)c(Br)c1 [Inhibitor 56, GW5074] | 880 nM | 4.6 ± 2.9 % of control | – | substantially inhibited | 3.15 µM | 1.09 µM | 4.7 ± 4.1 % of control | – | substantially inhibited | – | 3.25 µM | inhibited | attenuated | attenuated | –
